Data taken from ChEMBL document CHEMBL5390233, “Design, synthesis and biological evaluation of 2-aminopyrimidine derivatives as potent FLT3 inhibitors” (Bioorg Med Chem Lett, 2023).

Key:
BaF3 [1] = assay: Antiproliferative activity against mouse BaF3 cells harboring FLT3-D835V mutant assessed as inhibition of cell growth; type: functional, cell-based
MV4-11 = assay: Antiproliferative activity against human MV4-11 cells assessed as inhibition of cell growth; type: functional, cell-based
BaF3 [2] = assay: Antiproliferative activity against mouse BaF3 cells harboring FLT3-ITD mutant assessed as inhibition of cell growth; type: functional, cell-based
BaF3 [3] = assay: Antiproliferative activity against mouse BaF3 cells harboring FLT3-F691L mutant assessed as inhibition of cell growth; type: functional, cell-based
BaF3 [4] = assay: Antiproliferative activity against mouse BaF3 cells harboring FLT3-D835F mutant assessed as inhibition of cell growth; type: functional, cell-based
BaF3 [5] = assay: Antiproliferative activity against mouse BaF3 cells harboring FLT3-ITD-D835Y mutant assessed as inhibition of cell growth; type: functional, cell-based
MOLM-13 = assay: Antiproliferative activity against human MOLM-13 cells assessed as inhibition of cell growth; type: functional, cell-based
MCF7 = assay: Antiproliferative activity against human MCF7 cells assessed as inhibition of cell growth; type: functional, cell-based
HeLa = assay: Antiproliferative activity against human HeLa cells assessed as inhibition of cell growth; type: functional, cell-based
MM1.S = assay: Antiproliferative activity against human MM1.S cells assessed as inhibition of cell growth; type: functional, cell-based
[6] = Antiproliferative activity against human PBMC cells assessed as inhibition of cell growth; type: toxicity, cell-based
[7] = biological target: T1, Receptor-type tyrosine-protein kinase FLT3 (Homo sapiens, UniProt P36888); assay: Inhibition of wild type FLT3 (unknown origin)
T1 sequence (P36888 whole entry): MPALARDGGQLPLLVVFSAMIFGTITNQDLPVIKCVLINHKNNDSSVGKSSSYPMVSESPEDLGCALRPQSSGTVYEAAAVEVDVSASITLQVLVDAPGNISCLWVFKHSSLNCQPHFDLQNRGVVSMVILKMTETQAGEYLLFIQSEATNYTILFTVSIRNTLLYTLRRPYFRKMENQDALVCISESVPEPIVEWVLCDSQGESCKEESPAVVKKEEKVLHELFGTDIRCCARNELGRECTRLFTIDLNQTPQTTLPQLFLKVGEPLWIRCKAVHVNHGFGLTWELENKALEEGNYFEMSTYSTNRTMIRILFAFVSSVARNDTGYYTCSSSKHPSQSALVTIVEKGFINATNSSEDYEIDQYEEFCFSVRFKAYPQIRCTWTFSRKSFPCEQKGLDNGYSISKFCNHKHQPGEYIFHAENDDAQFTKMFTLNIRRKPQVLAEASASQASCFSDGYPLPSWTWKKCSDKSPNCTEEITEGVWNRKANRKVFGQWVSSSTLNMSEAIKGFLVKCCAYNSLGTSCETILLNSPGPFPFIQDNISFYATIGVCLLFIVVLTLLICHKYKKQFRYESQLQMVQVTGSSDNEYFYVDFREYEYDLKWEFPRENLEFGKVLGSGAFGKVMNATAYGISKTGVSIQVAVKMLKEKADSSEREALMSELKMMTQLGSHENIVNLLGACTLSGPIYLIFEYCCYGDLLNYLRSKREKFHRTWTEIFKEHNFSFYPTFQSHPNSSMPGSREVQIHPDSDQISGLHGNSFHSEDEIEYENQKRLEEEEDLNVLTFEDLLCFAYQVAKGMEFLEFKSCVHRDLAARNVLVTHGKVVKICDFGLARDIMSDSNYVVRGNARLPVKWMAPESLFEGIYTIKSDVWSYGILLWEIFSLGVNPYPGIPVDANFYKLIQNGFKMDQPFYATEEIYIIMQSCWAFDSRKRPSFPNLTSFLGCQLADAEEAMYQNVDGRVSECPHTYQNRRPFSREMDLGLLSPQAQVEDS

[8] = biological target: Receptor-type tyrosine-protein kinase FLT3 (Homo sapiens, UniProt P36888, D835Y); assay: Inhibition of FLT3 D835Y mutant (unknown origin)

SMILES	IC50 [7]	IC50 [8]	IC50 (MV4-11; mv4-11)	other results
CC1(COc2ccc(Nc3ncc(C(F)(F)F)c(N[C@H]4CC[C@@H](N)CC4)n3)cc2)COC1	0.00742 µM	0.00921 µM	0.00083 µM	IC50 (BaF3 [1]; baf3): 0.00098 µM; IC50 (BaF3 [2]; baf3): 0.00091 µM; IC50 (BaF3 [3]; baf3): 0.0042 µM; IC50 (BaF3 [4]; baf3): 0.00094 µM; IC50 (BaF3 [5]; baf3): 0.00095 µM; IC50 (MOLM-13): 0.0106 µM; IC50 (MCF7; mcf7): 4.98 µM; IC50 (HeLa; hela): 5.78 µM; IC50 (MM1.S; mm1.s): 2.25 µM; IC50 [6]: 7.86 µM
CC1(COc2ccc(Nc3ncc(C(F)(F)F)c(N4CCOCC4)n3)cc2)COC1	0.339 µM	0.38 µM	–	–
CC1(COc2cccc(Nc3ncc(C(F)(F)F)c(NC4CCNCC4)n3)c2)COC1	0.0321 µM	0.0687 µM	–	–
CC1(COc2ccc(Nc3ncc(C(F)(F)F)c(N[C@@H]4CCCNC4)n3)cc2)COC1	0.0143 µM	0.0259 µM	0.00974 µM	–
CC1(COc2cccc(Nc3ncc(C(F)(F)F)c(N[C@@H]4CCCNC4)n3)c2)COC1	0.0165 µM	0.0243 µM	0.0173 µM	–
CC1(COc2cccc(Nc3ncc(C(F)(F)F)c(NCC4CCNCC4)n3)c2)COC1	0.011 µM	0.0224 µM	0.00693 µM	–
CC1(COc2ccc(Nc3ncc(C(F)(F)F)c(N[C@H]4CC[C@H](N)CC4)n3)cc2)COC1	0.0299 µM	0.0275 µM	0.0264 µM	–
CCc1nc(C(N)=O)c(Nc2ccc(N3CCC(N4CCN(C)CC4)CC3)c(OC)c2)nc1NC1CCOCC1 [GILTERITINIB]	–	–	–	IC50 (BaF3 [1]; Mus musculus, BaF3): 0.00062 µM; IC50 (MV4-11; Homo sapiens, MV4-11): 0.00134 µM; IC50 (BaF3 [2]; Mus musculus, BaF3): 0.0006 µM; IC50 (BaF3 [3]; Mus musculus, BaF3): 0.00105 µM; IC50 (BaF3 [4]; Mus musculus, BaF3): 0.00066 µM; IC50 (BaF3 [5]; Mus musculus, BaF3): 0.00048 µM; IC50 (MCF7; Homo sapiens, MCF7): 1.3 µM; IC50 (HeLa; Homo sapiens, HeLa): 3.2 µM; IC50 (MM1.S; Homo sapiens, MM1.S): 0.203 µM; IC50 [6]: 7.03 µM

Now from value to compound, other results behind:

IC50 [7]	IC50 [8]	SMILES	IC50 (MV4-11; mv4-11)	other results
0.0289 µM	0.0417 µM	CC1(COc2ccc(Nc3ncc(C(F)(F)F)c(NC4CCNCC4)n3)cc2)COC1	–	–
0.138 µM	0.35 µM	CC1(COc2ccc(Nc3ncc(C(F)(F)F)c(N4CCC(N)CC4)n3)cc2)COC1	–	–
0.086 µM	0.142 µM	CC1(COc2ccc(Nc3ncc(C(F)(F)F)c(N4CCC(O)CC4)n3)cc2)COC1	–	–
0.339 µM	0.686 µM	CN1CCN(c2nc(Nc3ccc(OCC4(C)COC4)cc3)ncc2C(F)(F)F)CC1	–	–
0.0296 µM	0.0646 µM	CC1(COc2ccc(Nc3ncc(C(F)(F)F)c(N[C@H]4CC[C@H](O)CC4)n3)cc2)COC1	–	IC50 (MV4-11; Homo sapiens, MV4-11): 0.00758 µM
0.231 µM	0.351 µM	CC1(COc2ccc(Nc3ncc(C(F)(F)F)c(N4CCNCC4)n3)cc2)COC1	–	–
0.00946 µM	0.00979 µM	CC1(COc2ccc(Nc3ncc(C(F)(F)F)c(N[C@H]4CC[C@@H](O)CC4)n3)cc2)COC1	–	IC50 (MV4-11; Homo sapiens, MV4-11): 0.0429 µM
0.0324 µM	0.0408 µM	CC1(COc2ccc(Nc3ncc(C(F)(F)F)c(NCC4CCNCC4)n3)cc2)COC1	–	–
